Assay results published in PubChem BioAssay AID330 (DTP/NCI, 2004).
Toxic doses and inconclusive results are not listed. How the source made its calls: active means survival T/C of 150% or more; inactive means T/C below 125% in these data.

Test system: P388 leukemia ip, CD2F1 mice, survival T/C
Assay: NCI In Vivo Anticancer Drug Screen. Data for tumor model P388 Leukemia (intraperitoneal) in CD2F1 (CDF1) mice
Conditions: endpoint: median survival time, higher = longer survival
How it was run: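 Mice carrying the transplanted tumor received test compound or vehicle. Survival was recorded in each group, and the value is the treated-group measurement divided by that of the vehicle-treated control group.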

[1] = dose: 50.0 mg/kg/injection, schedule: Q01DX009 (ip), vehicle: saline with Tween-80
[2] = dose: 100.0 mg/kg/injection, schedule: Q01DX009 (ip), vehicle: saline with Tween-80
[3] = dose: 200.0 mg/kg/injection, schedule: Q01DX009 (ip), vehicle: saline with Tween-80
[4] = dose: 60.0 mg/kg/injection, schedule: Q01DX005 (ip), vehicle: Klucel (hydroxypropylcellulose) (HPC)
[5] = dose: 120.0 mg/kg/injection, schedule: Q01DX005 (ip), vehicle: Klucel (hydroxypropylcellulose) (HPC)
[6] = dose: 240.0 mg/kg/injection, schedule: Q01DX005 (ip), vehicle: Klucel (hydroxypropylcellulose) (HPC)
[7] = dose: 100.0 mg/kg/injection, schedule: Q01DX009 (ip), vehicle: saline sonified
[8] = dose: 50.0 mg/kg/injection, schedule: Q01DX005 (ip), vehicle: saline with Tween-80
[9] = dose: 100.0 mg/kg/injection, schedule: Q01DX005 (ip), vehicle: saline with Tween-80
[10] = dose: 200.0 mg/kg/injection, schedule: Q01DX005 (ip), vehicle: saline with Tween-80
[11] = dose: 100.0 mg/kg/injection, schedule: Q01DX009 (ip), vehicle: saline
[12] = dose: 200.0 mg/kg/injection, schedule: Q01DX009 (ip), vehicle: saline
[13] = dose: 400.0 mg/kg/injection, schedule: Q01DX009 (ip), vehicle: saline with Tween-80
[14] = dose: 100.0 mg/kg/injection, schedule: Q04DX002 (ip), vehicle: saline with Tween-80
[15] = dose: 200.0 mg/kg/injection, schedule: Q04DX002 (ip), vehicle: saline with Tween-80

Measured: T/C

O=C(O)c1cccc(C(=O)O)c1O
inactive: dose: 50.0 mg/kg/injection, schedule: Q01DX001 (ip), vehicle: saline with Tween-80 102 % of control | [1] 100 % of control | dose: 100.0 mg/kg/injection, schedule: Q01DX001 (ip), vehicle: saline with Tween-80 105 % of control | [2] 103 % of control | dose: 200.0 mg/kg/injection, schedule: Q01DX001 (ip), vehicle: saline with Tween-80 110 % of control | [3] 94 % of control

CNC(=S)SCc1ccccc1
inactive: [1] 99 % of control | [2] 110 % of control

O=C1Nc2ccccc2C1NC(=S)Nc1ccc(Br)cc1 (stereo not drawn)
inactive: dose: 60.0 mg/kg/injection, schedule: Q01DX005 (ip), vehicle: saline with Tween-80 91 % of control | dose: 120.0 mg/kg/injection, schedule: Q01DX005 (ip), vehicle: saline with Tween-80 94 % of control | dose: 240.0 mg/kg/injection, schedule: Q01DX005 (ip), vehicle: saline with Tween-80 88 % of control

CC(=O)c1c(C)n(C)c2c1nnc1ccccc12
inactive: [4] 101 % of control | [5] 97 % of control | [6] 99 % of control

Cc1nc(-c2ccccc2-n2cccc2)no1
inactive: [1] 104 % of control | [2] 102 % of control

NC(=O)SCC(=O)Nc1ccc2ncccc2c1
inactive: [7] 100 % of control | dose: 100.0 mg/kg/injection, schedule: Q04DX003 (ip), vehicle: saline sonified 100 % of control | dose: 200.0 mg/kg/injection, schedule: Q01DX009 (ip), vehicle: saline sonified 113 % of control | dose: 200.0 mg/kg/injection, schedule: Q04DX003 (ip), vehicle: saline sonified 100 % of control | dose: 400.0 mg/kg/injection, schedule: Q01DX009 (ip), vehicle: saline sonified 90 % of control | dose: 400.0 mg/kg/injection, schedule: Q04DX003 (ip), vehicle: saline sonified 104 % of control

C[C@@]12C(=O)OC(=O)[C@]1(C)[C@H]1CC[C@@H]2O1
inactive: dose: 0.5 mg/kg/injection, schedule: Q01DX005 (ip), vehicle: acetone 105 % of control | dose: 62.5 micrograms/kg/injection, schedule: Q01DX005 (ip), vehicle: acetone 102 % of control | dose: 125.0 micrograms/kg/injection, schedule: Q01DX005 (ip), vehicle: acetone 107 % of control | dose: 250.0 micrograms/kg/injection, schedule: Q01DX005 (ip), vehicle: acetone 102 % of control | dose: 500.0 micrograms/kg/injection, schedule: Q01DX005 (ip), vehicle: acetone 102 % of control

C=C1C(=O)OC2/C=C(\C)CC/C=C(/CO)C(OC(=O)C(C)(C)O)C(OC(=O)C(C)C)C12 (stereo not drawn)
inactive: dose: 5.0 mg/kg/injection, schedule: Q01DX009 (ip), vehicle: other 107 % of control

Nc1nc(N)c2[nH]c(=O)[nH]c2n1
inactive: [8] 103 % of control | [9] 103 % of control | [10] 118 % of control

O=C(O)Cn1nnc2ccccc21
inactive: [11] 101 % of control | [12] 96 % of control

CCCCCCCCCCNC1CC(OC2CC(O)(C(C)=O)Cc3c(O)c4c(c(O)c32)C(=O)c2c(OC)cccc2C4=O)OC(C)C1O (stereo not drawn)
inactive: dose: 4.7 mg/kg/injection, schedule: Q04DX003 (ip), vehicle: water 101 % of control | dose: 9.4 mg/kg/injection, schedule: Q04DX003 (ip), vehicle: water 97 % of control | dose: 18.8 mg/kg/injection, schedule: Q04DX003 (ip), vehicle: water 106 % of control | dose: 37.5 mg/kg/injection, schedule: Q04DX003 (ip), vehicle: water 92 % of control

CN1C(=O)C(C)(C)CN(c2ccccc2)C1=S
inactive: [8] 100 % of control | [9] 108 % of control | [10] 103 % of control

CC(C)(C)N1CCC1C(=O)O (stereo not drawn)
inactive: [1] 92 % of control | [2] 94 % of control | [3] 88 % of control | [13] 87 % of control

CCSC(=S)N(CC)c1nc2ccccc2o1
inactive: [14] 105 % of control | [15] 113 % of control | dose: 400.0 mg/kg/injection, schedule: Q04DX002 (ip), vehicle: saline with Tween-80 122 % of control

C=C1C(=O)C23C(OC(=O)CCCCCCCCCCCCC)C1CCC2C12COC3(O)C(O)C1C(C)(C)CCC2O (stereo not drawn)
inactive: dose: 3.75 mg/kg/injection, schedule: Q01DX009 (ip), vehicle: saline with Tween-80 104 % of control | dose: 7.5 mg/kg/injection, schedule: Q01DX009 (ip), vehicle: saline with Tween-80 109 % of control | dose: 15.0 mg/kg/injection, schedule: Q01DX009 (ip), vehicle: saline with Tween-80 112 % of control

CC(C)C[N+]1(Cc2ccc(Cl)c(Cl)c2)CCOCC1
inactive: [14] 99 % of control | [15] 108 % of control

COc1cc(/C=C2\CN(C)C(=O)C2=O)ccc1O
inactive: [1] 100 % of control | [2] 108 % of control | [3] 109 % of control | [13] 108 % of control

CC1CC2(OC2C)C(=O)OC2CCN(C)C/C=C(/COC(=O)C1(C)O)C2=O (stereo not drawn)
inactive: dose: 3.12 mg/kg/injection, schedule: Q01DX009 (ip), vehicle: Klucel (hydroxypropylcellulose) (HPC) 105 % of control | dose: 6.25 mg/kg/injection, schedule: Q01DX009 (ip), vehicle: Klucel (hydroxypropylcellulose) (HPC) 99 % of control | dose: 12.5 mg/kg/injection, schedule: Q01DX009 (ip), vehicle: Klucel (hydroxypropylcellulose) (HPC) 103 % of control | dose: 25.0 mg/kg/injection, schedule: Q01DX009 (ip), vehicle: Klucel (hydroxypropylcellulose) (HPC) 99 % of control | dose: 40.0 mg/kg/injection, schedule: Q01DX009 (ip), vehicle: Klucel (hydroxypropylcellulose) (HPC) 110 % of control | dose: 50.0 mg/kg/injection, schedule: Q04DX002 (ip), vehicle: saline 108 % of control | dose: 80.0 mg/kg/injection, schedule: Q01DX009 (ip), vehicle: Klucel (hydroxypropylcellulose) (HPC) 110 % of control | dose: 100.0 mg/kg/injection, schedule: Q04DX002 (ip), vehicle: saline 101 % of control | dose: 160.0 mg/kg/injection, schedule: Q01DX009 (ip), vehicle: Klucel (hydroxypropylcellulose) (HPC) 100 % of control | dose: 200.0 mg/kg/injection, schedule: Q04DX002 (ip), vehicle: saline 106 % of control

O=C1C2=C(Nc3cc([N+](=O)[O-])ccc3N2)OC1c1cccc([N+](=O)[O-])c1 (stereo not drawn)
inactive: [4] 97 % of control | [5] 96 % of control | [6] 102 % of control

N#C/C(=C\c1cccs1)C(N)=S
inactive: dose: 50.0 mg/kg/injection, schedule: Q01DX009 (ip), vehicle: saline 100 % of control | [11] 102 % of control | [12] 100 % of control

CC(=O)NNC(=O)c1ccc2ccccc2n1
inactive: dose: 50.0 mg/kg/injection, schedule: Q01DX009 (ip), vehicle: saline sonified 100 % of control | [7] 104 % of control

Cc1ccc(C(=O)NC2c3ccccc3Oc3ccccc32)cc1
inactive: [8] 90 % of control | [9] 86 % of control

CC(C)N1CCC(OC(=O)Nc2ccccc2)C1 (stereo not drawn)
inactive: dose: 50.0 mg/kg/injection, schedule: Q01DX009 (ip), vehicle: Klucel (hydroxypropylcellulose) (HPC) 100 % of control | dose: 100.0 mg/kg/injection, schedule: Q01DX009 (ip), vehicle: Klucel (hydroxypropylcellulose) (HPC) 99 % of control | dose: 200.0 mg/kg/injection, schedule: Q01DX009 (ip), vehicle: Klucel (hydroxypropylcellulose) (HPC) 98 % of control

CN(C)c1ccc(/C=N/NC(=O)C(=O)NCc2ccco2)cc1
inactive: [1] 94 % of control | [2] 86 % of control | [3] 91 % of control

C[n+]1c(-c2ccccc2)c2cc(N)ccc2c2ccc(N)cc21
inactive: dose: 1.56 mg/kg/injection, schedule: Q04DX003 (ip), vehicle: saline with Tween-80 106 % of control | dose: 3.13 mg/kg/injection, schedule: Q04DX003 (ip), vehicle: saline with Tween-80 107 % of control | dose: 6.25 mg/kg/injection, schedule: Q04DX003 (ip), vehicle: saline with Tween-80 118 % of control | dose: 25.0 mg/kg/injection, schedule: Q04DX003 (ip), vehicle: saline with Tween-80 124 % of control

COC(=O)N(C)SN(C)C(=O)O/N=C(\SC)C(=O)N(C)C
inactive: dose: 1.56 mg/kg/injection, schedule: Q01DX009 (ip), vehicle: saline 101 % of control | dose: 3.12 mg/kg/injection, schedule: Q01DX009 (ip), vehicle: saline 102 % of control
